Measured values reported in patent US7067551B2, “Deacetylase inhibitors” (Novartis AG, priority 2000, dated 2006).

Experiments:
[1] = test system: H1299 (human lung carcinoma cell); assay: Monolayer cell growth inhibition, MTS assay; type: cell-based; conditions: NCI-H1299, H1299, 72 hours compound treatment, lactate salts
From the text: (§1) Cell lines H1299 (human lung carcinoma cell) and HCT116 (colon tumor cell) are obtained from the American Type Culture Collection, Rockville, Md. The cell lines are free of Mycoplasma contamination (Rapid Detection System by Gen-Probe, Inc., San Diego, Calif.) and viral contamination (MAP testing by MA BioServices, Inc., Rockville, Md.). The cell lines are propagated and expanded in RPMI 1640 medium containing 10% heat-inactivated FBS (Life Technologies, Grand Island, N.Y.). Cell expansions for implantation are performed in cell factories (NUNC, purchased from Fisher Scientific, Springfield, N.J.). Cells are harvested at 50–90% confluency, washed once with HBSS (Hank's Balanced Salt Solution) containing 10% FBS, and suspended in 100% HBSS.
(§2) Cell proliferation is measured with a commercial MTS kit (Promega, Madision, Wis.) assay using an adaptation of published procedures, for example, that disclosed in Feasibility of drug screening with panels of human tumor cell lines using a microculture tetrazolium assay, Alley M C, et al., Cancer Res. 1988; 48:589–601. Cells are plated in 96-well tissue culture dishes, with top and bottom rows left empty. H1299 and HCT116 cells are suspended in complete media at a density of 5.3×10^3 and 3.6×10^3 cell/mL, respectively, and 190 μl are added per well. Each cell line is added to one half of the plate. Complete medium (200 μL) is added to the top and bottom rows. Twenty-four hours later, 10 μl of MTS solution is added to one of the plates to determine the activity at the time of compound addition (T0). The plate is incubated at 37° C. for 4 hours and the OD490 is measured on a Molecular Devices Thermomax at 490 nm using the Softmax program. The T0 plate serves as a reference for initial activity at the beginning of the experiment.
(§3) Five serial dilutions (1:4) of each compound are made in a 96-deep well plate with the highest concentrations on the edge of plate. Two cell lines are tested with two compounds per plate.0 Ten microliters of each of the five dilutions are added in triplicate and complete medium alone is added to columns six and seven. The plates are incubated at 37° C. for 72 hours. The MTS solution is added (as for the T0 plate) and read four hours later.
(§4) In order to analyze the data, the average background value (media alone) is subtracted from each experimental well; the triplicate values are averaged for each compound dilution. The following formulas are used to calculate percent growth.
Lactate salts of N-hydroxy-3-[4-[[[2-(1H-indol-3-yl)-ethyl]-amino]methyl]phenyl]-2E-2-propenamide (CMD1), N-hydroxy-3-[4-[[(2-hydroxyethyl)[2-(1H-indol-3-yl)ethyl]-amino]methyl]phenyl]-2E-2-propenamide (CMD2), N-hydroxy-3-[4-[[[2-(5-methoxy-1H-indol-3-yl)-ethyl]-amino]methyl]pheny]-2E-2-propenamide (CMD3), N-hydroxy-3-[4-[[[2-(5-fluoro-1H-indol-3-yl)-ethyl]-amino]methyl]phenyl]-2E-2-propenamide (CMD4), N-hydroxy-3-[4-[[[2-(benzofur-3-yl)-ethyl]-amino]methyl]phenyl]-2E-2-propenamide (CMD5) having a purity of higher than 95% are dissolved in pure dimethylsulfoxide (DMSO) to create a stock solution. The stock solution is diluted with 5% dextrose injection, USP, just prior to dosing.

[2] = test system: HCT116 (colon tumor cell); assay: Monolayer cell growth inhibition, MTS assay; type: cell-based; conditions: Homo sapiens, HCT-116, HCT116, 72 hours compound treatment, lactate salts
From the text: as §1, §2, §3, §4
The stock solution is diluted with 5% dextrose injection, USP, just prior to dosing.

[3] = test system: HDA partially purified from H1299 cells; assay: HDA enzyme assay, 3H-acetate release from acetylated histone H4 peptide; type: biochemical, human; conditions: HDA partially purified from H1299, 37° C. 1.5 hr
Description: HDA is partially purified from H1299, human non-small cell lung carcinoma cells (obtained from American Type Culture Collection, 12301 Parklawn Drive, Rockville, Md. 20852, USA). Cells are grown to 70–80% confluence in RPMI media in the presence of 10% FCS, harvested and lysed by sonication. The lysate is centrifuged at 23,420 g for 10–15 min, the supernatant is applied to a Hiload 26/10 High performance Q-sepharose column (Amersham Pharmacia Biotech), and equilibrated with a buffer containing 20 mM Tris pH8.0, 1 mM EDTA, 10 mM NH4Cl2, 1 mM μ-Mercaptoethanol, 5% glycerol, 2 μg/mL aprotinin, 1 μg/mL leupeptin, and 400 mM PMSF. Proteins are eluted in 4 mL aliquots with a linear gradient from 0–500 mM NaCl in the above buffer at a flow rate of 2.5 mL/min. Each preparation of partially purified HDA enzyme is titrated to determine the optimal amount needed to obtain a signal to noise ratio of at least 5 to 1. […] The compounds are serially diluted in DMSO to generate stocks at 20-fold of the assay concentrations. Final concentrations of compounds in the assay are 10 μM, 2 μM, 400 nM, 80 nM, and 16 nM with the final percentage of DMSO in each enzyme reaction equaling 0.1%. Each concentration of compound is assayed in duplicate. The substrate used in the reaction is a peptide of amino acid sequence, [sequence], corresponding to the twenty-four N-terminal amino acids of human histone H4, biotinylated at the N-terminus and penta-acetylated, at each lysine residue with ^3H-acetate. To initiate the reaction, the substrate is diluted in 10 μL of Buffer A (100 mM Tris pH 8.0, 2 mM EDTA), added to the enzyme mixture and collected at the bottom of the deep well plate by centrifugation for 5 minutes at 1500 rpm. Following centrifugation, the mixture is incubated at 37° C. for 1.5 hr. The reaction is stopped by the addition of 20 μL of the Stop Buffer (0.5N HCl, 0.08M Acetic Acid). At this point, the assay proceeds to the robotic extraction phase or is frozen for several days at −80° C.
The extraction of enzymatically cleaved ^3H-acetate groups from the reaction mixture is achieved with the solvent TBME (t-butyl methyl ether) using the Tomtec Quadra 96 workstation. A program is written to add 200 μL of TBME to a 96 “deep well” plate. The workstation is programmed to aspirate 50 μL of air followed by 200 μL of TBME and finally another 25 μL of air, which is dispensed into the each well of the plate. The contents of the deep well were mixed thoroughly by pipetting 160 μL up and down 10 times. Before addition of TBME to the reaction mixture, it is necessary to “pre-wet” the pipette tips with TBME to prevent the solvent from dripping during the transfer to the deep well plate. The organic and aqueous phases in the deep well are separated by centrifugation at 1500 rpm for 5 min. Opti-Phase Supermix liquid scintillation cocktail (200 μL) (Wallac) is added to each well of the 96-well Trilux plate (Wallac). […] The Trilux plate is covered with clear film and read on a 1450 MicroBeta Trilux liquid scintillation and luminescence counter (Wallac) with a color/chemical quench and dpm correction.
In order to determine the IC50 values, the data are analyzed on a spreadsheet. The analysis requires a correction for the background luminescence that is accomplished by subtracting the dpm values of wells without ^3H substrate from the experimental wells. […]

A549 = assay: Annexin V / propidium iodide staining (apoptosis), fluorescence microscopy; type: cell-based, human; conditions: for cells exhibiting cell surface staining with annexin V: A549, 24 hour exposure; for cells staining with annexin V and/or propidium iodide: A549, 48 hour treatment
Description: (§5) Annexin V binding was used as a marker for the early stages of apoptosis. A549,HCT116 and Normal Dermal Human Fibroblasts (NDHF) cells are treated separately with four compounds (CMD1, CMD2, CMD3 and CMD4) for 24 or 48 hours, stained with annexin V and compared to cells treated similarly with vehicle (DMSO). Cells are examined by fluorescence microscopy. […] Viability is assessed by the counterstain, propidium iodide. Cells detected by red fluorescence are not viable.

HCT116 = assay: as above; type: cell-based, human; conditions: for cells exhibiting cell surface staining with annexin V: HCT116, 24 hour exposure; for cells staining with annexin V and/or propidium iodide: HCT116, 48 hour treatment
Description: as §5

[4] = test system: Normal Dermal Human Fibroblasts (NDHF); assay: as above; type: cell-based; conditions: NDHF cells
Description: as §5

[5] = test system: A549 non-small cell lung human tumor cell line; assay: A549 tumor xenograft in athymic mice, antitumor activity; type: in vivo; conditions: Example B3 repeated; for Δ MEAN TUMOR VOLUME: ± SEM
Description: as §1, with “The A549 non-small cell” for “Cell lines H1299 (human”, “human” for “carcinoma cell) and HCT116 (colon”, “cell line is purchased” for “cell) are obtained”, “line is” for “lines are”, “HBSS” for “HBSS (Hank's Balanced Salt Solution)”
(§6) Outbred athymic (nu/nu) female mice (“Hsd:Athymic Nude-nu” from Harlan Sprague Dawley, Indianapolis, Ind.) are anesthetized with Metofane (Mallinckrodt Veterinary, Inc., Mundelein, Ill.), and 100 μL of the cell suspension containing 1×10^7 cells is injected subcutaneously into the right axillary (lateral) region of each animal. Tumors are allowed to grow for about 20 days until a volume of ˜100 mm^3 is achieved. At this point, mice bearing tumors with acceptable morphology and size are sorted into groups of eight for the study. The sorting process produces groups balanced with respect to mean and range of tumor size. Antitumor activity is expressed as % T/C, comparing differences in tumor volumes for treatment group (T) to vehicle control group (C).
(§7) CMD1 is administered intravenously, once daily 5×/week for three weeks, at doses of 10, 25, 50, or 100 mg/kg. The final DMSO concentration is 10%. Each test group has eight mice. Tumors are measured, and individual animal body weights recorded.
(§8) Example B3 repeated except CMD2 is used.

[6] = test system: HCT116 colon tumor cell line; assay: HCT116 tumor xenograft in athymic mice, antitumor activity; type: in vivo; conditions: 34th day; for Δ MEAN TUMOR VOLUME: ± SEM
Description: as §1, with “The A549 non-small cell” for “Cell lines H1299 (human”, “human” for “carcinoma cell) and HCT116 (colon”, “cell line is purchased” for “cell) are obtained”, “line is” for “lines are”, “HBSS” for “HBSS (Hank's Balanced Salt Solution)”
as §6, §7
(§9) Example B3 is repeated except the HCT116 colon tumor cell line is used in place of the A549 cell line. The HCT116 cell line is also obtained from American Type Culture Collection, Rockville, Md., and the cell line is free of Mycoplasma contamination and viral contamination.
(§10) Example B4 is repeated except the HCT116 colon tumor cell line is used in place of the A549 cell line. The HCT116 is also obtained from American Type Culture Collection, Rockville, Md., and the cell line is free of Mycoplasma contamination and viral contamination.

[7] = Body weight change of A549 tumor-bearing athymic mice; type: in vivo; conditions: Example B3 repeated, ± SEM
Description: as §6, §7, §8

[8] = Body weight change of HCT116 tumor-bearing athymic mice; type: in vivo; conditions: 34th day, ± SEM
Description: as §6, §7, §9, §10

| Compound | IC50 [1] [nM] | IC50 [2] [nM] | IC50 [3] [nM] | cells exhibiting cell surface staining with annexin V (A549) | cells staining with annexin V and/or propidium iodide (A549) | cells exhibiting cell surface staining with annexin V (HCT116) | cells staining with annexin V and/or propidium iodide (HCT116) | annexin V staining ([4]; 24 hour exposure) | further results |
| --- | --- | --- | --- | --- | --- | --- | --- | --- | --- |
| COc1ccc2[nH]cc(CCNCc3ccc(/C=C/C(=O)NO)cc3)c2c1 [CMD3, N-hydroxy-3-[4-[[[2-(5-methoxy-1H-indol-3-yl)-ethyl]-amino]methyl]pheny]-2E-2-propenamide] | 580 | 30 | 14 | A small percentage | the majority | the majority | the majority | do not show noticeable annexin V staining | annexin V staining ([4]; 48 hour): limited annexin V staining |
| O=C(/C=C/c1ccc(CNCCc2coc3ccccc23)cc1)NO [CMD5, N-hydroxy-3-[4-[[[2-(benzofur-3-yl)-ethyl]-amino]methyl]phenyl]-2E-2-propenamide] | 180 | 30 | 16 |  |  |  |  |  |  |
| Nc1ccccc1NC(=O)c1ccc(CNC(=O)OCc2cccnc2)cc1 [CMDC, reference compound] | 6800 |  |  |  |  |  |  |  |  |
| O=C(/C=C/c1ccc(CN(CCO)CCc2c[nH]c3ccccc23)cc1)NO [CMD2, N-hydroxy-3-[4-[[(2-hydroxyethyl)[2-(1H-indol-3-yl)ethyl]-amino]methyl]phenyl]-2E-2-propenamide] | 150 | 10 | 63 | A small percentage | the majority | the majority | the majority | do not show noticeable annexin V staining | % T/C ([5]; Table B4, A549, 25 mg/kg): 27%; Δ MEAN TUMOR VOLUME ([5]; Table B4, A549, 25 mg/kg): 37 ± 16 mm^3; % T/C ([5]; Table B4, A549, 50 mg/kg): 21%; Δ MEAN TUMOR VOLUME ([5]; Table B4, A549, 50 mg/kg): 29 ± 15 mm^3; % T/C ([6]; Table B6, HCT116, 10 mg/kg): 56%; Δ MEAN TUMOR VOLUME ([6]; Table B6, HCT116, 10 mg/kg): 422 ± 75 mm^3; % T/C ([6]; Table B6, HCT116, 25 mg/kg): 40%; Δ MEAN TUMOR VOLUME ([6]; Table B6, HCT116, 25 mg/kg): 305 ± 47 mm^3; % T/C ([6]; Table B6, HCT116, 50 mg/kg): 13%; Δ MEAN TUMOR VOLUME ([6]; Table B6, HCT116, 50 mg/kg): 97 ± 30 mm^3; % T/C ([6]; Table B6, HCT116, 100 mg/kg): 17%; Δ MEAN TUMOR VOLUME ([6]; Table B6, HCT116, 100 mg/kg): 132 ± 30 mm^3; Δ % BODY WEIGHT ([7]; Table B4, A549, 25 mg/kg): −4.2 ± 2.5%; Δ % BODY WEIGHT ([7]; Table B4, A549, 50 mg/kg): −2.9 ± 1.5%; Δ % BODY WEIGHT ([8]; Table B6, HCT116, 10 mg/kg): −10.2 ± 0.5%; Δ % BODY WEIGHT ([8]; Table B6, HCT116, 25 mg/kg): −7.0 ± 0.2%; Δ % BODY WEIGHT ([8]; Table B6, HCT116, 50 mg/kg): −7.3 ± 0.3%; Δ % BODY WEIGHT ([8]; Table B6, HCT116, 100 mg/kg): −9.4 ± 0.4% |
| O=C(/C=C/c1ccc(CNCCc2c[nH]c3ccc(F)cc23)cc1)NO [CMD4, N-hydroxy-3-[4-[[[2-(5-fluoro-1H-indol-3-yl)-ethyl]-amino]methyl]phenyl]-2E-2-propenamide] | 280 | 30 | 14 | A small percentage | the majority | the majority | the majority | do not show noticeable annexin V staining |  |
